The target of one experiment is BaF3 PIM1 cells (Homo sapiens, UniProt P11309). Nature of the experiment: BaF3 PIM1 cell proliferation (Cell Titer Glo). Type of experiment: cell-based. On the technique in general: Cellular ATP, detected with luciferase, serves as a proxy for viable cell number.
The next experiment has as its system MM1.S cells. Nature of the experiment: MM1.S cell proliferation, 72 hours (Cell Titer Glo). Type of experiment: cell-based. The following applies: Homo sapiens. In short, it runs like this: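 BaF3 parental cells (2 k/well, with 2 ng/mL mIL-3) were treated overnight, and MM1.S cells (10 k/well) were treated for 72 h at 37 °C. Viability was read by CellTiter-Glo luminescence. IC50/EC50 values were calculated from the luminescence data.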

The test system of another experiment is BaF3 parental cells. Nature of the experiment: BaF3 parental cell proliferation (Cell Titer Glo). The class given is cell-based. As to conditions: Mus musculus, Table 3. As to the method: BaF3 parental line was obtained from the DSMZ repository. BaF3 lines transfected with PIM1 or PIM2 were generated. Mouse IL-3 was purchased from R&D Systems. G418 was purchased from Clontech. Media for BaF3 parental line contained RPMI, 10% FBS, 2 mM L-Glutamine, 2 ng/mL mIL-3. Media for BaF3 PIM1 & 2 lines contained RPMI, 10% FBS, 2 mM L-Glutamine, […]. Media for MM1.S line contained RPMI, 10% FBS, 2 mM L-Glutamine.
BaF3 parental cells, BaF3 PIM1 cells, BaF3 PIM2 cells, and MM1.S cells were seeded at 2 k/well, 5 k/well, 5 k/well, and 10 k/well respectively, in a 384-well plate, at 45 μL/well. Test compound was added at 5 μL/well. BaF3 cells (parental and transfected) were incubated overnight, while MM1.S cells were incubated for 72 hours at 37° C., 5% CO2. Cell Titer Glo Reagent (Promega) was added at 50 μL/well, the plates were incubated for 30 minutes, and their luminescence read on an HT Analyst. IC50/EC50 values for the test compound were calculated.

For experiment [1], the system named is syngeneic A20 lymphoma tumors. Nature of the experiment: Syngeneic A20 lymphoma tumor model. The following applies: Compound 3 25 and 50 mg/kg or Formula A 75 mg/kg po qd x21. Type of experiment: in vivo, Balb/c mice. As to the method: The efficacy of the combinations of the invention may be measured in vivo by implanting allografts or xenografts of cancer cells in rodents and treating the tumor-bearing animals with the combinations. […] Subject mice were treated with drug(s) or control (Vehicle) and monitored over several weeks or more to measure the time to tumor doubling, log cell kill, and tumor inhibition.
Dosing of all cohorts commenced on Day 0 when the mean tumor volume of all cohorts was between […]. […] At the conclusion of this study, femurs were collected and histological analysis of the bone marrow was conducted, and peripheral blood was collected for determination of blood cell counts.

The subject of experiment [2] is OPM-2 multiple myeloma xenografts. Nature of the experiment: OPM-2 multiple myeloma xenograft. As to conditions: Compound 3 50 mg/kg po qd x21, day 23 vs vehicle. The class given is in vivo, SCID Beige mice. As to the method: The efficacy of the combinations of the invention may be measured in vivo by implanting allografts or xenografts of cancer cells in rodents and treating the tumor-bearing animals with the combinations. Variable results are to be expected depending on the cell line, the presence or absence of certain mutations in the tumor cells, the sequence of administration of a formula I compound and chemotherapeutic agent, dosing regimen, and other factors. Subject mice were treated with drug(s) or control (Vehicle) and monitored over several weeks or more to measure the time to tumor doubling, log cell kill, and tumor inhibition.
Dosing of all cohorts commenced on Day 0 when the mean tumor volume of all cohorts was between about 100 to 200 cubic millimeters. […] Formula A was tested at as a single agent at a single dose level of 75 mg/kg for which a similar TGI was obtained at day 23.

Like-named read-outs stand apart in the source and are kept apart here.

For orientation: IC50 means the concentration that inhibits the measured activity by half.

Chain of BaF3 PIM1 cells (P11309 whole entry, change not shown): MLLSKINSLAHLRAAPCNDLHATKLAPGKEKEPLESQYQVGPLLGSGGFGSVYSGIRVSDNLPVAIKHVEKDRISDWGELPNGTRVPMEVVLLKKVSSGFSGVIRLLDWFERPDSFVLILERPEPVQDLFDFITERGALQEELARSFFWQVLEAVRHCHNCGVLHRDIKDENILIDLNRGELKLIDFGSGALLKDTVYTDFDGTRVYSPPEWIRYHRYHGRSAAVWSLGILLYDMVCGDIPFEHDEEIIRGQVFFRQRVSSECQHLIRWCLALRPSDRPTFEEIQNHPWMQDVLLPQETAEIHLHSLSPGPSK

Turning to `Nc1sc(-c2c(F)cccc2F)nc1C(=O)Nc1cnccc1N1CCC[C@H](N)C1` [Example 3, (S)-5-amino-N-(4-(3-aminopiperidin-1-yl)pyridin-3-yl)-2-(2,6-difluorophenyl)thiazole-4-carboxamide], the GI50 on BaF3 PIM1 cells (Table 3, read-out: BaF3-Pim1) stood at 0.01 µM; on BaF3 PIM1 cells (incubated overnight, read-out: Prolif BaF3_PIM1 (IC50)), 0.0135 µM. The EC50 with MM1.S cells (72 hours, read-out: Prolif MM1S ATP (EC50)) was 0.0497 µM; with MM1.S cells (Table 3, read-out: MM1.s), 0.2 µM. In addition, in the experiment on BaF3 parental cells, the IC50 came out at 8 µM. Besides, the “effect on tumor growth, single agents” value in experiment [1] was “no significant effect on tumor growth”. In addition, in experiment [2], the “tumor growth inhibition (TGI)” value is listed as “about 45%”.

Source of the values: US8435976B2, “4-substituted pyridin-3-yl-carboxamide compounds and methods of use” (F. Hoffmann-La Roche, priority 2009, dated 2013).
